From article PMC2263054, “Functional evolution of the vitamin D and pregnane X receptors” (BMC Evolutionary Biology, 2007)
Where two headings read alike, the source gives them in different places.

Experiments:
Xenopus laevis VDR = target: T1, Xenopus laevis VDR (Xenopus laevis, UniProt O13124); experiment: luciferase reporter transactivation assay in HepG2-NTCP cells, GAL4/xlVDR LBD chimera with tk-UAS-Luc; format: cell-based; settings: for EC50 / Xenopus VDR EC50 ± SD: HepG2-NTCP cells, luciferase reporter; for EC50: read-out: Xenopus VDR EC50 ± SD; for Effect on Xenopus laevis VDR: screening for activators, at least three concentrations of each drug; for Xenopus VDR EC50 ± SD: unit not given, also cells saying No effect
T1 sequence (O13124 90-422): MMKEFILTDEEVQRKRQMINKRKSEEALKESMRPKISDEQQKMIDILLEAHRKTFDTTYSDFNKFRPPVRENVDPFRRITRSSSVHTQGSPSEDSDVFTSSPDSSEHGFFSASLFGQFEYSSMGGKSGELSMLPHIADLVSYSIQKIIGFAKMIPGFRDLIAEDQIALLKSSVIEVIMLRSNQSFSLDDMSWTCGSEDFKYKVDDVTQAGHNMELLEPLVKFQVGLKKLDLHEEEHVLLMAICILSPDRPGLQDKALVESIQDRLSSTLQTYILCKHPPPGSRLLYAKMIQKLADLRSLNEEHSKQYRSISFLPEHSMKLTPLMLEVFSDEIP

Human VDR = target: T2, Human VDR (Homo sapiens, UniProt P11473); experiment: luciferase reporter transactivation assay in HepG2-NTCP cells, full-length hVDR with CYP3A4-PXRE-Luc
T2 sequence (P11473 1-427): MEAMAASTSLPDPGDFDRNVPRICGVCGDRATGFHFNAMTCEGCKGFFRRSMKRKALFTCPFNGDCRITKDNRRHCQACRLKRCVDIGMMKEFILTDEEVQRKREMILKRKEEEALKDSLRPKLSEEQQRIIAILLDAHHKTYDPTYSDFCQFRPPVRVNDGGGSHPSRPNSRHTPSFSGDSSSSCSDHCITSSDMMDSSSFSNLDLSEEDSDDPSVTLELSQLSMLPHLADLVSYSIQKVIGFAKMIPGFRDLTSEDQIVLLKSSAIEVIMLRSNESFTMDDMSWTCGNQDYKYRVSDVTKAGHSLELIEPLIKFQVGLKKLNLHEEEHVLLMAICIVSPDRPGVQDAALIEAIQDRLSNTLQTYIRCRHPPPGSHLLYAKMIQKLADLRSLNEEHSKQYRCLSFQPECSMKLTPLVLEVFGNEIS

Zebrafish VDR = target: T3, Zebrafish VDR (Danio rerio, UniProt Q9PTN2); experiment: luciferase reporter transactivation assay in HepG2-NTCP cells, GAL4/zfVDR LBD chimera with tk-UAS-Luc; format: cell-based; settings: for EC50 / Zebrafish VDR EC50 ± SD: HepG2-NTCP cells, luciferase reporter; for EC50: read-out: Zebrafish VDR EC50 ± SD; for Effect on zebrafish VDR: screening for activators, at least three concentrations of each drug; for Zebrafish VDR EC50 ± SD: unit not given, also cells saying No effect
T3 sequence (Q9PTN2 121-453): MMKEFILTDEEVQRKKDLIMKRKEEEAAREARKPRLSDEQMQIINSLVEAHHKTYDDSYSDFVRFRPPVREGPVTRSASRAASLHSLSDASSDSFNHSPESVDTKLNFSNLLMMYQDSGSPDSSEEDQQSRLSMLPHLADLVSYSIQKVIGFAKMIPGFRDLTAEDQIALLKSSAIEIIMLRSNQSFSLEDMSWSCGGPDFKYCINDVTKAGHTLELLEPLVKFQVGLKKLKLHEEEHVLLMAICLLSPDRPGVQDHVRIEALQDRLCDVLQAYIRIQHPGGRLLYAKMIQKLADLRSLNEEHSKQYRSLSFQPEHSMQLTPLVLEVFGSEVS

Mouse VDR = target: T4, Mouse VDR (Mus musculus, UniProt P48281); experiment: luciferase reporter transactivation assay in HepG2-NTCP cells, full-length mVDR with CYP3A4-PXRE-Luc
T4 sequence (P48281 1-422): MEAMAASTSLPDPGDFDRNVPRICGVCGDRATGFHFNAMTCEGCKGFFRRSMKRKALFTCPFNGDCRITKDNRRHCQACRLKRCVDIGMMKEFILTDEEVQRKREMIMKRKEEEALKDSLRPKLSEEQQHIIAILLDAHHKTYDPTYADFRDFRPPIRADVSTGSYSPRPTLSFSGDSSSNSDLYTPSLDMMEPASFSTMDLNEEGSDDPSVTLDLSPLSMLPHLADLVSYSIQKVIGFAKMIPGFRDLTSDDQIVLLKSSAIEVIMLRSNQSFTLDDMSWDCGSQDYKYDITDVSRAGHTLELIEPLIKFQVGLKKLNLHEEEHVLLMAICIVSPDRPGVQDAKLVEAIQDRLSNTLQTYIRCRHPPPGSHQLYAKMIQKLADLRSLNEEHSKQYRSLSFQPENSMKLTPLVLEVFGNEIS

[1] = test system: ethoxyresorufin O-deethylase (EROD) activity (CYP1A-like activity); experiment: EROD assay in zebrafish primary hepatocytes; settings: zebrafish primary hepatocytes; DIM at concentrations of 2 μM and greater
Procedure: The cells are cultured at 26°C in ambient atmosphere.

Sea lamprey VDR = target: T5, Sea lamprey VDR (Petromyzon marinus, UniProt Q7ZZY9); format: cell-based; settings: for Effect on sea lamprey VDR: screening for activators, at least three concentrations of each drug; for Sea lamprey VDR EC50 ± SD: HepG2-NTCP cells, luciferase reporter, unit not given, also cells saying No effect
T5 sequence (Q7ZZY9 92-406): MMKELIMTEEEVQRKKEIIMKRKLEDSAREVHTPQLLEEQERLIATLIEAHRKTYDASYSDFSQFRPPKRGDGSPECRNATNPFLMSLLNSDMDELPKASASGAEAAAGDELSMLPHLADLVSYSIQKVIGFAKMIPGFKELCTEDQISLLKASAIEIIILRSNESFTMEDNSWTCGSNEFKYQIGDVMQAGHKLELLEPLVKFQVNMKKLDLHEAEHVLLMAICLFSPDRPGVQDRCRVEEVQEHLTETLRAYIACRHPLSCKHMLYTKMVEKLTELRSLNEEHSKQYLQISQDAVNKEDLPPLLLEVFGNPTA

[2] = test system: testosterone 6β-hydroxylation; experiment: testosterone hydroxylation (HPLC) in sea lamprey primary hepatocytes; format: cell-based; settings: concentration ranges per compound
Procedure: 100 μL of sample, calibration standard, or quality material standard were pipetted into separate microcentrifuge tubes and mixed with 100 μL of methanol. Samples were vortexed and centrifuged at 13,000 rpm for 4 min. The supernatant was then injected into the HPLC.
The flow rate was 1.2 mL/min and total run time was 25 min.

EROD activity = experiment: EROD assay in sea lamprey primary hepatocytes; settings: 24–48 hr exposure
[3] = HepG2-NTCP cells, luciferase reporter, unit not given, also cells saying No effect

**Q.** Which EC50 (Xenopus laevis VDR) does the source give for `C=C1/C(=C\C=C2/CCC[C@]3(C)[C@@H]([C@H](C)/C=C/[C@H](C)C(C)C)CC[C@@H]23)C[C@@H](O)C[C@@H]1O` [1α-Hydroxyvitamin D2] here?
**A.** 624 ± 49 nM

**Q.** And the EC50 (Human VDR)?
**A.** 13 ± 1.2 nM

**Q.** What about the EC50 (Zebrafish VDR) of the same molecule?
**A.** 26 ± 1.7 nM

**Q.** And the EC50 (Mouse VDR)?
**A.** 0.8 ± 0.1 nM

**Q.** How did the EC50 (Xenopus laevis VDR) turn out when `C=C1/C(=C\C=C2/CCC[C@]3(C)[C@@H]([C@H](C)CCCC(C)C)CC[C@@H]23)C[C@@H](O)C[C@@H]1O` [1α-Hydroxyvitamin D3] was run?
**A.** 157 ± 10 nM

**Q.** And the EC50 (Human VDR)?
**A.** 4.3 ± 0.5 nM

**Q.** What about the EC50 (Zebrafish VDR) of the same molecule?
**A.** 18 ± 1.4 nM

**Q.** And the EC50 (Mouse VDR)?
**A.** 0.3 ± 0.04 nM

**Q.** With `c1ccc2c(Cc3c[nH]c4ccccc34)c[nH]c2c1` [3,3'-diindoylmethane] as the molecule, how does the “effect on EROD activity” value [1] read?
**A.** caused a decrease in EROD activity

**Q.** What about the “Effect on Xenopus laevis VDR” value (Xenopus laevis VDR) of the same molecule?
**A.** No effect

**Q.** And the “Effect on zebrafish VDR” value (Zebrafish VDR)?
**A.** No effect

**Q.** What about the “Effect on sea lamprey VDR” value (Sea lamprey VDR) of the same molecule?
**A.** No effect

**Q.** Which results are given for `C[C@H](CCC(=O)O)[C@H]1CC[C@H]2[C@@H]3CC[C@@H]4CC(=O)CC[C@]4(C)[C@H]3CC[C@]12C` [3-Ketolithocholic acid]?
**A.** Xenopus VDR EC50 ± SD (Xenopus laevis VDR): No effect; Effect on Xenopus laevis VDR (Xenopus laevis VDR): No effect; Human VDR EC50 ± SD (Human VDR): 55 ± 8.1 (0.17); Zebrafish VDR EC50 ± SD (Zebrafish VDR): No effect; Effect on zebrafish VDR (Zebrafish VDR): No effect; Sea lamprey VDR EC50 ± SD (Sea lamprey VDR): No effect; Effect on sea lamprey VDR (Sea lamprey VDR): No effect; Mouse VDR EC50 ± SD (Mouse VDR): 20 ± 0.3 (0.58); Ciona VDR/PXR EC50 ± SD (Ciona VDR/PXR): No effect

**Q.** With `C[C@H](CCCO)[C@H]1CC[C@H]2[C@@H]3[C@H](O)C[C@H]4CC(=O)CC[C@]4(C)[C@H]3C[C@H](O)[C@]12C` [3-keto-5α-petromyzonol] as the molecule, how does the “effect on testosterone 6β-hydroxylation” value [2] read?
**A.** None of these compounds produced significant increases in testosterone 6β-hydroxylation

**Q.** Which results are given for `CC(CCCOS(=O)(=O)O)[C@H]1CCC2C3C(C[C@H](O)[C@@]21C)[C@@]1(C)CC[C@@H](O)C[C@@H]1C[C@H]3O` (stereo partly drawn) [5α-Petromyzonol 24-sulfate]?
**A.** Xenopus VDR EC50 ± SD (Xenopus laevis VDR): No effect; Human VDR EC50 ± SD (Human VDR; [3]): No effect; Zebrafish VDR EC50 ± SD (Zebrafish VDR): No effect; effect on EROD activity (EROD activity): did not alter EROD activity; Sea lamprey VDR EC50 ± SD (Sea lamprey VDR): No effect; Mouse VDR EC50 ± SD (Mouse VDR; [3]): No effect; Ciona VDR/PXR EC50 ± SD (Ciona VDR/PXR; [3]): No effect; effect on testosterone 6β-hydroxylation [2]: None of these compounds produced significant increases in testosterone 6β-hydroxylation

**Q.** With `C[C@]12CC[C@@H](O)C[C@@H]1CC[C@@H]1[C@@H]2CC[C@]2(C)C=CC[C@@H]12` [5α-androst-16-en-3α-ol] as the molecule, how does the “Effect on Xenopus laevis VDR” value (Xenopus laevis VDR) read?
**A.** No effect

**Q.** What about the “Effect on zebrafish VDR” value (Zebrafish VDR) of the same molecule?
**A.** No effect

**Q.** And the “Effect on sea lamprey VDR” value (Sea lamprey VDR)?
**A.** No effect

**Q.** What about the “effect on testosterone 6β-hydroxylation” value [2] of the same molecule?
**A.** None of these compounds produced significant increases in testosterone 6β-hydroxylation
